“Also recorded” adds a separate entry of the source.
Assays:
[1] = tested on: db mice (C57BL/KsOlahsd-Leprdb, diabetic); test: Acute response of db mice to RUP3 agonist (blood glucose); assay type: in vivo; details: male db mice; 60 mg/kg, oral gavage; FIG. 5B
Method: B. […] Male db mice (C57BL/KsOlahsd-Leprdb, diabetic, Harlan) at age of 10 weeks were randomly grouped (n=6) to receive vehicle (oral gavage), Compound B70 (60 mg/kg, oral gavage), or Ex-4 (1 μg/kg, intraperitoneally). After compound administration, food was removed and blood glucose levels were determined at indicated times as shown in FIG. 5B. Reduction in blood glucose at each time point was expressed as percentage of original glucose levels, averaged from six animals for each group.

[2] = tested on: C57bl/6N mice; test: Oral glucose tolerance test (oGTT) in mice; assay type: in vivo; details: male C57bl/6N mice fasted 18 hours; p.o. 30 min before oral dextrose 5 g/kg; FIG. 5A
Method: A. Oral Glucose Tolerance Test (oGTT) (FIG. 5A).
Male C57bl/6N mice at age of 8 weeks were fasted for 18 hours and randomly grouped (n=11) to receive a RUP3 agonist (Compound B70) at indicated doses, or with control extendin-4 (ex-4, 1 μg/kg), a GLP-1 peptide analog known to stimulate glucose-dependent insulin secretion. Compound B70 was delivered orally via a gavage needle (p.o. volume at 100 μl). Control Ex-4 was delivered intraperitoneally. Thirty minutes after administration of test compound and control ex4, mice were administered orally with dextrose at 5 g/kg dose. Levels of blood glucose were determined at the indicated time points using Glucometer Elite XL (Bayer).

[3] = target: T1, RUP3 (Homo sapiens, UniProt Q8TDV5); test: 96-Well Cyclic AMP Membrane Assay for RUP3 (Membrane Cyclase Assay); assay type: biochemical; details: RUP3 membranes, cAMP Flashplate
T1 construct: seen in the listing only (N); seen in the listing only (C); expressed in transfected cells
T1 sequence (Q8TDV5 with tags, fused parts or gaps): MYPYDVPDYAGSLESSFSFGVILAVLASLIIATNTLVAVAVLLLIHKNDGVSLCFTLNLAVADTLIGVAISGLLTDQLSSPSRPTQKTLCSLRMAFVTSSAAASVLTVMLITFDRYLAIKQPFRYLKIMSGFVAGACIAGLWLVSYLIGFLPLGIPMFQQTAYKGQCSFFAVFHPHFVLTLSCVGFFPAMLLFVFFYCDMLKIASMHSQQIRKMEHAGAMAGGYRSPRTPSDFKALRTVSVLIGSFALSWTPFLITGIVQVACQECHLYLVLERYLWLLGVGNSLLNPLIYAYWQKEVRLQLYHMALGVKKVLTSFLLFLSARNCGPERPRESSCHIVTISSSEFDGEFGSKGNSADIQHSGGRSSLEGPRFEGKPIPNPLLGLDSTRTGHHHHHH
Method: 96-Well Cyclic AMP Membrane Assay for RUP3
Binding Buffer—filter through […] Nalgene filter and keep in refrigerator. All buffers and membranes should be kept cold (in ice bucket) while performing assay. • 20 mM Hepes, pH7.4 • 1 mM MgCl2 • 100 mM NaCl • 2× Regeneration Buffer (make in binding buffer): • 20 mM Phosphocreatine (1.02 gm/200 ml binding buffer) • 20 units Creatine phosphokinase (4 mg/200 ml) • 20 uM GTP (make up 10.46 mg/ml in binding buffer and add 200 ul/200 ml) • 0.2 mM ATP (22.04 mg/200 ml) • […] IBMX (44.4 mg IBMX dissolved in 1 ml 100% DMSO first and then add the entire amount to 200 ml of buffer).
Regeneration buffer can be aliquotted into 40-45 ml portions (in 50 ml sterile tubes) and kept frozen for up to 2 months. Simply put the tube in a beaker with room temperature water to thaw out the regeneration buffer on the day of the assay. […]
IC50s or EC50s are done in triplicate. […] The membranes are kept in ice all the time, and a polytron (Brinkmann polytron, model #PT-3100) is used (setting 6-7, for 15-20 seconds) to obtain a homogeneous membrane suspension.) Protein concentration is determined by Bradford protein assay kit using instructions given in the kit, using the standard supplied with the kit as a reference. […]

In the case of `O=[N+]([O-])c1c(Nc2ccc(-n3cncn3)cc2)ncnc1N1CCC(Sc2ccccn2)CC1` [Compound B70, {5-Nitro-6-[4-(pyridin-2-ylsulfanyl)-piperidin-1-yl]-pyrimidin-4-yl}-(4-[1,2,4]triazol-1-yl-phenyl)-amine], the “blood glucose levels compared to vehicle control” value [1] is reported as “significantly reduces glucose levels compared to vehicle control”, the “blood glucose after glucose challenge (oGTT)” value [2] is reported as “lowered blood glucose in a dose-dependent manner; also recorded: in a dose-dependent manner on the lowering of blood glucose after glucose challenge” and the IC50 [3] is reported as 0.129 µM.
